Common to all, as to assay: inhibition of tumour cell growth, NCI panel, 48 h
Experiment [1] concerns EKVX NSCLC.
The test system of experiment [2] is K-562 leukemia.
The subject of experiment [3] is KM12 colon.
For experiment [4], the system named is MALME-3M melanoma.
Experiment [5] concerns NCI-H226 lung.
The test system of experiment [6] is NCI-H460 lung.
Experiment [7] deals with SF-295 CNS.
Experiment [8] concerns SK-MEL-28 melanoma.
The test system of experiment [9] is HS 578T breast.
In experiment [10] the test system is BT-549 breast.

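Grown in 96-well plates, cells were treated for 48 hours with each compound at five concentrations. Insufficient inhibition: endpoint recorded as highest concentration tested. The concentration for 50% growth inhibition is given as GI50. TGI: concentration producing complete growth inhibition.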

On to `O=[N+]([O-])c1ccc(Cc2nc3ccccc3s2)cc1`, for which the TGI in experiment [1], in experiment [2], in experiment [3], in [4], in [5] and in experiment [6] was > 100 µM throughout. Besides, the TGI in [7] and in [8] was > 100 µM throughout.

As to `O=C(CC(=O)Nc1ccc(Cl)cc1)NNCC(=O)Nc1nc(-c2ccccc2)cs1`, the TGI in [1], in experiment [2], in experiment [3], in experiment [5], in experiment [6] and in [7] was > 100 µM throughout. The TGI in experiment [8] was > 100 µM.

Take `N=C(c1ccccc1)N1CCCCC1`: the TGI in experiment [1], in experiment [3], in [4], in experiment [5], in [6] and in experiment [7] was > 100 µM each time. Moreover, the TGI in experiment [8] was > 100 µM.

Turning to `Cc1ccccc1C(C#N)/C(=N/NC(=O)c1cc2ccccc2cc1O)C(=O)Nc1cccc(Cl)c1` (stereo not drawn), the TGI is > 100 µM in [1]; > 100 µM in experiment [2]; > 100 µM in [3]; > 100 µM in [4]; 78.4 µM in experiment [5]; > 100 µM in experiment [6]. For the same molecule, the TGI in experiment [7] and in [8] was > 100 µM throughout.

As for `CC(C)=CC(=O)Cc1nc2ccccc2[nH]c1=O`, the TGI in experiment [1], in [2], in [3], in [4], in experiment [5] and in [6] was > 100 µM throughout. Moreover, the TGI in experiment [7] and in experiment [8] was > 100 µM each time.

Turning to `CN1C(c2ccccc2)CC(=Nc2ccccc2)CC1c1ccccc1` (stereo not drawn), the TGI in experiment [1] is 56.5 µM; in experiment [2], > 100 µM; in experiment [4], 22.9 µM; in experiment [5] it was 25.6 µM; in [6], 33.9 µM; in experiment [7], 31.1 µM. The same molecule showed a TGI in experiment [8] of 23.2 µM.

On to `CCNC(=O)C(O)C1(O)CCC2[C@@H]3CCC4=CC(=O)C=C[C@]4(C)C3[C@@H](O)C[C@@]21C` (stereo partly drawn), for which the TGI in experiment [1], in experiment [2], in experiment [3], in experiment [4], in experiment [5] and in experiment [6] was > 100 µM throughout. For the same molecule, the TGI in [7] and in experiment [8] was > 100 µM each time.

With `CCCCCCn1c(-c2ccc(C(=O)O/N=C(\N)c3ccc(OC)cc3)cc2)nc(-c2ccccc2)c1-c1ccccc1`, the GI50 in experiment [1] was 1.7 µM; in [9] it was 1.2 µM; in experiment [3], 2.81 µM; in [4] it was 1.75 µM; in experiment [6] it was 1.85 µM; in experiment [7], 1.61 µM. In [8], the GI50 is 2.96 µM. Also, the TGI was 3.38 µM in experiment [1]; 3.1 µM in [9]; > 100 µM in experiment [3]; 3.55 µM in experiment [4]; 3.93 µM in [6]; 3.07 µM in experiment [7]. Further, the TGI in experiment [8] is > 100 µM.

`COc1ccccc1NC(=O)CC(=O)n1nc(C)c(N=Nc2ccccc2F)c1C`: the TGI in experiment [1] is > 100 µM; in [2], > 31.6 µM; in experiment [3], > 100 µM; in [5], > 100 µM; in experiment [6] it was > 100 µM; in experiment [7], > 100 µM. Also, in experiment [8], the TGI is > 100 µM.

As to `COC(=O)c1nc(-c2ccc(Cl)c(Cl)c2)nc2ccccc12`, the TGI in [1] is > 100 µM; in [2], > 100 µM; in experiment [3] it was > 100 µM; in experiment [4], > 100 µM; in experiment [5], 78.1 µM; in experiment [6] it was > 100 µM. Further, the TGI in experiment [7] was > 31.1 µM; in experiment [8] it was > 100 µM.

For the molecule `C=CCOc1cc2c(cc1C(C)c1ccc(OC)cc1)OCO2` (stereo not drawn), the TGI in [1] was > 100 µM; in experiment [2], > 100 µM; in experiment [3] it was 65.9 µM; in experiment [4] it was > 100 µM; in experiment [5], 40.2 µM; in experiment [7] it was 0.817 µM. Moreover, the TGI in [8] was > 100 µM.

On to `[N-]=[N+]=Nc1ncc(-c2ccc(C(F)(F)F)cc2)c(NC2CCCCCC2)n1`, for which the GI50 in experiment [10], in [2], in experiment [3], in [4], in experiment [5] and in experiment [6] was > 10 µM throughout. Besides, the GI50 in experiment [7] and in experiment [8] was > 10 µM throughout. In addition, the TGI in [10], in [2], in experiment [3], in experiment [4], in experiment [5] and in experiment [6] was > 10 µM each time. In addition, the TGI in experiment [7] and in [8] was > 10 µM throughout.

As for `CSC(=S)N(C)c1nc(=[N+](C)C)ss1`, the TGI in experiment [1], in experiment [2], in experiment [3], in [4], in [5] and in experiment [6] was > 100 µM throughout. For the same molecule, the TGI in experiment [7] and in [8] was > 100 µM each time.

On to `COc1ccc2[nH]c3c(cnn4cnnc34)c2c1`, for which the TGI in experiment [1], in experiment [2], in experiment [3], in [4], in experiment [6] and in experiment [7] was > 100 µM throughout. Besides, in [8], the TGI was > 100 µM.

For `Cc1cc2c(C(C)C)c(O)c(O)c3coc(/c1=c1/c(C)cc4c(C(C)C)c(=O)c(=O)c5coc1c45)c32`, the TGI is 16.4 µM in experiment [1]; 16.5 µM in experiment [2]; 14.9 µM in [3]; 29.1 µM in [4]; 22.9 µM in experiment [5]; 16.2 µM in experiment [6]. The results for the TGI in experiment [7] and in [8] were 16.2 µM and 22.2 µM, respectively.

(Values after PubChem BioAssay (NCI).)
